{"source": "paper PMC8155022", "about": "(Scientific Reports, 2021)", "key": {"B2 (h)": {"molecular_target": "T1, B2 (h) (Homo sapiens, UniProt P30411)", "T1 construct": "purchased Cerep (receptors, ion channels, transporters); Eurofins Panlabs (kinases)", "T1 sequence (P30411 whole entry)": "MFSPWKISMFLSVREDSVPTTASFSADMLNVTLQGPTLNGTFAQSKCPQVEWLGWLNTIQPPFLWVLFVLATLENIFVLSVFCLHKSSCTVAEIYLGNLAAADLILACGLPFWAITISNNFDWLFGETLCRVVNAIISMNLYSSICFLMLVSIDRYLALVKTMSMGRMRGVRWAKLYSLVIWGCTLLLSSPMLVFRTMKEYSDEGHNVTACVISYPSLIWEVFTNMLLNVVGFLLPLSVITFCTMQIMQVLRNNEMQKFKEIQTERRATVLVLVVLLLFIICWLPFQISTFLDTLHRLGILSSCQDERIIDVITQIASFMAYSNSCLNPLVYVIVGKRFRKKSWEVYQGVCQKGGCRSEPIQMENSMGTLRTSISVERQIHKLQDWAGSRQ", "assay": "Cerep panel", "assay_type": "binding", "description": "(§1) A panel of 52 different receptors, ion channels and transporters was tested by Cerep, Inc. (Redmond, WA)."}, "[1]": {"test_system": "mouse collagen-induced arthritis (CIA) model", "assay": "mouse collagen-induced arthritis (CIA) model", "assay_type": "in vivo", "conditions": "for reduction of clinical arthritis scores (AUC) vs vehicle, efficacy % inhibition: day 21-35", "procedure": "On Day 0, mice (female DBA/1Lacj, Jackson Laboratories; 8–10 weeks) were immunized at the base of the tail with an emulsion containing equal amounts of Chick Type II Collagen (Chondrex, Redmond, WA) and Complete-Freund’s adjuvant (CFA, Chondrex), 100 µg each per mouse, and administered a second immunization boost on day 21. On this day, animals were examined for clinical arthritis scores and randomized into treatment groups. […] Clinical arthritis scores were evaluated from day 21 to 34, and animals were euthanized under CO2 on day 35. Both hind paws from each animal were collected and fixed in 10% neutral buffered formalin for histopathology."}, "D1": {"molecular_target": "D1 (Homo sapiens, UniProt P21728)", "assay": "GPCR panel, cAMP or calcium FLIPR assays", "assay_type": "cell-based", "description": "(§2) 28 GPCRs were evaluated through cAMP or calcium FLIPR assays[67]."}, "AT1": {"molecular_target": "AT1 (Homo sapiens, UniProt P30556)", "assay": "GPCR panel, cAMP or calcium FLIPR assays", "assay_type": "cell-based", "description": "as §2"}, "Plk3(h)": {"molecular_target": "T2, Plk3(h) (Homo sapiens, UniProt Q9H4B4)", "T2 construct": "purchased Cerep (receptors, ion channels, transporters); Eurofins Panlabs (kinases)", "T2 sequence (Q9H4B4 whole entry)": "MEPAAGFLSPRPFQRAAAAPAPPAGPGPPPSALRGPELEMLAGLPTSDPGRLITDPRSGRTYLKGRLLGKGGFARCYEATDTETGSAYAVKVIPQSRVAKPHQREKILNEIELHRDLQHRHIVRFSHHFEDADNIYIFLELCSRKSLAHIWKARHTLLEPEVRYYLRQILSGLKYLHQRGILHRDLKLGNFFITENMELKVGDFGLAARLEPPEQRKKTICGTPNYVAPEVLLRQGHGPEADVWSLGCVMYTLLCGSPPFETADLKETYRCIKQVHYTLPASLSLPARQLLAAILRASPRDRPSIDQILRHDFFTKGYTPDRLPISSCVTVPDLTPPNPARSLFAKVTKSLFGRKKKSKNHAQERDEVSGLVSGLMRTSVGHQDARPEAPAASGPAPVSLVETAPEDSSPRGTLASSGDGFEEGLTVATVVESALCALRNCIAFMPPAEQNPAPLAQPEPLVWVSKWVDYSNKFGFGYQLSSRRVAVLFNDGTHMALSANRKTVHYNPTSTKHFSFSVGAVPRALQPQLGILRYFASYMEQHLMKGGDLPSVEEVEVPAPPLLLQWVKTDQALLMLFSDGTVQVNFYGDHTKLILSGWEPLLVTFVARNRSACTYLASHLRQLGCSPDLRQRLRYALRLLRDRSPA", "assay": "Kinase panel", "assay_type": "biochemical", "description": "(§3) Kinase selectivity was conducted by Eurofins Panlabs Inc (St Charles, MO)."}, "TK6": {"test_system": "TK6", "assay": "mammalian cell (TK6) micronucleus test", "assay_type": "cell-based", "conditions": "in vitro"}, "V1a (h)": {"molecular_target": "T3, V1a (h) (Homo sapiens, UniProt P37288)", "T3 construct": "purchased Cerep (receptors, ion channels, transporters); Eurofins Panlabs (kinases)", "T3 sequence (P37288 whole entry)": "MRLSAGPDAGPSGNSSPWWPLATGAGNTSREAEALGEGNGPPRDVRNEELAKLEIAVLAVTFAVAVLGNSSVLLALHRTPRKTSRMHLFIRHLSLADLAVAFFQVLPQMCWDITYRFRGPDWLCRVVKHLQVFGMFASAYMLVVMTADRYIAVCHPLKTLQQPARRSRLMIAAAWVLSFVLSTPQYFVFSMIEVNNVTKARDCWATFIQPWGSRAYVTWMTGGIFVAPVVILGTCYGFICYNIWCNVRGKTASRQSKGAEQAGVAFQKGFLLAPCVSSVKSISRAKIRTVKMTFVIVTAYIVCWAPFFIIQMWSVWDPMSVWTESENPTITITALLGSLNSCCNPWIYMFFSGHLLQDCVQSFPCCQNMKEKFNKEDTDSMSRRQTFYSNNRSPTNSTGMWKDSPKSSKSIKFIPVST", "assay": "Cerep panel", "assay_type": "binding", "description": "as §1"}, "H2 (h)": {"molecular_target": "T4, H2 (h) (Homo sapiens, UniProt P25021)", "T4 construct": "purchased Cerep (receptors, ion channels, transporters); Eurofins Panlabs (kinases)", "assay": "Cerep panel", "assay_type": "binding", "description": "as §1"}, "hNav1.5": {"molecular_target": "hNav1.5 (Homo sapiens, UniProt Q14524)", "assay": "follow-up functional study", "assay_type": "cell-based", "conditions": "read-out: IC50 in follow-up functional studies"}, "PKCβI(h)": {"molecular_target": "T5, PKCβI(h) (Homo sapiens, UniProt P05771)", "T5 construct": "purchased Cerep (receptors, ion channels, transporters); Eurofins Panlabs (kinases)", "assay": "Kinase panel", "assay_type": "biochemical", "description": "as §3"}, "[2]": {"test_system": "ex vivo stimulated IL-17A production", "assay": "phase 1 single ascending dose study, ex vivo stimulated IL-17A production in whole blood", "parameters": "species or system human", "procedure": "The sampling was performed up to 120 h post-dose for cohort 1 (10 mg) and cohort 2 (30 mg), and extended to 504 h for cohort 3, 4 and 5.\nWhole blood samples were collected on the morning of day 1 at pre-dose and at 1, 2, 6, 12, 24, 48, 96, and 120 h post-dose in Cohorts 1 and 2. For Cohort 3,4, and 5, samples were collected the morning of day 1 at pre-dose and at 2, 6, 12, 24, 48, 120, 312 and 504 h post-dose. Blood samples (1 ml) were drawn into TruCulture tubes (Myriad RBM, Austin, TX) which contained 2 ml of cocktail containing cell culture media and stimulants, then mixed and incubated at 37 °C in a block thermostat for 48 h. The final concentrations of the stimulants in the TruCulture tube incubations were: IL-23 (50 ng/ml), and IL-1β (10 ng/ml), with anti-CD3 and anti-CD28 antibodies at standard concentration as per standard CD3/CD28 TruCulture tubes. Negative control tubes (no stimulants) were also collected at each timepoint. Supernatants were collected after the end of the incubation period and analyzed to determine concentrations of induced IL-17A using a validated immunoassay method (human IL-17A V-plex kit from Meso Scale Discovery)."}, "CCKA": {"molecular_target": "CCKA (Homo sapiens, UniProt P32238)", "sequence (P32238 whole entry)": "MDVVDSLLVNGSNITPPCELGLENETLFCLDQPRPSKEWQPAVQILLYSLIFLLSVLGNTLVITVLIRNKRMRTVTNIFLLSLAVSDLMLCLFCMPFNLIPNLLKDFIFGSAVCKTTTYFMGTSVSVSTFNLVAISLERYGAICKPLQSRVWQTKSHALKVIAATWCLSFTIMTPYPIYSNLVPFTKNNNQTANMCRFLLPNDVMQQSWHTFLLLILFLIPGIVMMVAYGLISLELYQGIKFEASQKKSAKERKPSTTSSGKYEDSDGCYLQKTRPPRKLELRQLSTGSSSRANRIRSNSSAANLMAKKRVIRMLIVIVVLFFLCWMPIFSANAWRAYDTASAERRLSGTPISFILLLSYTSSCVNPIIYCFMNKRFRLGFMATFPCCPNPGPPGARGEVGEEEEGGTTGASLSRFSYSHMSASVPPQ", "assay": "GPCR panel, cAMP or calcium FLIPR assays", "assay_type": "cell-based", "description": "as §2"}, "A3": {"molecular_target": "T6, A3 (Homo sapiens, UniProt P0DMS8)", "T6 sequence (P0DMS8 1-318)": "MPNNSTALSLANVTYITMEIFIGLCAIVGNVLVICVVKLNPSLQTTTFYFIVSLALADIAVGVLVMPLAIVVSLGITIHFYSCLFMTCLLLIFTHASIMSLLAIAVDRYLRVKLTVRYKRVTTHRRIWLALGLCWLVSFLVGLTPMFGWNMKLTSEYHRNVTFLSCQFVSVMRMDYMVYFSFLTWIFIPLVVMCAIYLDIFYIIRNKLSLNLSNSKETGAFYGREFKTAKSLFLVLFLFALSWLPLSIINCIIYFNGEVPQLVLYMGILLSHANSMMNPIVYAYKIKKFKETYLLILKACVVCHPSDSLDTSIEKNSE", "assay": "GPCR panel, cAMP or calcium FLIPR assays", "assay_type": "cell-based", "description": "as §2"}, "Aurora-A(h)": {"molecular_target": "T7, Aurora-A(h) (Homo sapiens, UniProt O14965)", "T7 construct": "purchased Cerep (receptors, ion channels, transporters); Eurofins Panlabs (kinases)", "T7 sequence (O14965 whole entry)": "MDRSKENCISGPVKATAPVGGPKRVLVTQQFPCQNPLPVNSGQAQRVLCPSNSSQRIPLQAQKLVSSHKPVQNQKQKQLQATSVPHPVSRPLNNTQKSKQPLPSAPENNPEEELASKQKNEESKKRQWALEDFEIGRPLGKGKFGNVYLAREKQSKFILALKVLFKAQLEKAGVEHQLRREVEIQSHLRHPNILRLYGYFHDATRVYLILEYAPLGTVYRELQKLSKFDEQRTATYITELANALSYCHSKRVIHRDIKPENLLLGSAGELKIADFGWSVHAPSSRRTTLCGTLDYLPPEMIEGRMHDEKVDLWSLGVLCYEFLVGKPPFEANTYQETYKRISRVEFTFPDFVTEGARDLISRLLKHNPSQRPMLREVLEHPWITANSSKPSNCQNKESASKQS", "assay": "Kinase panel", "assay_type": "biochemical", "description": "as §3"}, "H1 (h)": {"molecular_target": "T8, H1 (h) (Homo sapiens, UniProt P35367)", "T8 construct": "purchased Cerep (receptors, ion channels, transporters); Eurofins Panlabs (kinases)", "T8 sequence (P35367 whole entry)": "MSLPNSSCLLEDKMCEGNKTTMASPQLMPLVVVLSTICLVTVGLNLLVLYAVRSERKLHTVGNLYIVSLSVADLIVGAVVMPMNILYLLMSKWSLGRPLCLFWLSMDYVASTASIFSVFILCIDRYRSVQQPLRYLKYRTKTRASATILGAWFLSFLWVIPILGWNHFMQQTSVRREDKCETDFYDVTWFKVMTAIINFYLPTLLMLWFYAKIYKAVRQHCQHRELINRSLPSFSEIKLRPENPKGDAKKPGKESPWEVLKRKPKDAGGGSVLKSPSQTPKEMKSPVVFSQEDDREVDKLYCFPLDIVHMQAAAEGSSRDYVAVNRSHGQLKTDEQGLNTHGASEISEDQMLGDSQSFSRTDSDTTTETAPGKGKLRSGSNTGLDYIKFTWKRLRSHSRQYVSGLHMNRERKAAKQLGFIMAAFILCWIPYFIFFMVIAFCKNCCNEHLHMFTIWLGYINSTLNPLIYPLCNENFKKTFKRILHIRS", "assay": "Cerep panel", "assay_type": "binding", "description": "as §1"}, "M3": {"molecular_target": "M3 (Homo sapiens, UniProt P20309)", "assay": "GPCR panel, cAMP or calcium FLIPR assays", "assay_type": "cell-based", "description": "as §2"}, "ADRA2A": {"molecular_target": "ADRA2A (Homo sapiens, UniProt P08913)", "sequence (P08913 whole entry, species assumed)": "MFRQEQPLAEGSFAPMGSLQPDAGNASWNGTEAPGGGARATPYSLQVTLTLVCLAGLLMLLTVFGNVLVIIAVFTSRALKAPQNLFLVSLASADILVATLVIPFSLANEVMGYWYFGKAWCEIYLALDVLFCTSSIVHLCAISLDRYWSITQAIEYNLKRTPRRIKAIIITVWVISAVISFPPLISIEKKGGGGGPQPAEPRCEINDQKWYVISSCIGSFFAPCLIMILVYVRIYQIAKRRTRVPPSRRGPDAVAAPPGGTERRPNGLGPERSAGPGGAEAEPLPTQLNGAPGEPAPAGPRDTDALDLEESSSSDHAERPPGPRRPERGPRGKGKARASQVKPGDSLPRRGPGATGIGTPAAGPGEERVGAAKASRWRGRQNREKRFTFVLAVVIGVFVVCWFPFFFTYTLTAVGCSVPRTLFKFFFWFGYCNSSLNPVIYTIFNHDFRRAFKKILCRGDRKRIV", "assay": "GPCR panel, cAMP or calcium FLIPR assays", "assay_type": "cell-based", "description": "as §2"}, "[3]": {"molecular_target": "hGABAAα1β2γ2-gated Cl− channel (Homo sapiens, UniProt P14867+P18507+P47870)", "assay": "follow-up functional study", "assay_type": "cell-based", "conditions": "read-out: IC50 in follow-up functional studies"}, "PDGFRβ(h)": {"molecular_target": "T9, PDGFRβ(h) (Homo sapiens, UniProt P09619)", "T9 construct": "purchased Cerep (receptors, ion channels, transporters); Eurofins Panlabs (kinases)", "T9 sequence (P09619 33-1106)": "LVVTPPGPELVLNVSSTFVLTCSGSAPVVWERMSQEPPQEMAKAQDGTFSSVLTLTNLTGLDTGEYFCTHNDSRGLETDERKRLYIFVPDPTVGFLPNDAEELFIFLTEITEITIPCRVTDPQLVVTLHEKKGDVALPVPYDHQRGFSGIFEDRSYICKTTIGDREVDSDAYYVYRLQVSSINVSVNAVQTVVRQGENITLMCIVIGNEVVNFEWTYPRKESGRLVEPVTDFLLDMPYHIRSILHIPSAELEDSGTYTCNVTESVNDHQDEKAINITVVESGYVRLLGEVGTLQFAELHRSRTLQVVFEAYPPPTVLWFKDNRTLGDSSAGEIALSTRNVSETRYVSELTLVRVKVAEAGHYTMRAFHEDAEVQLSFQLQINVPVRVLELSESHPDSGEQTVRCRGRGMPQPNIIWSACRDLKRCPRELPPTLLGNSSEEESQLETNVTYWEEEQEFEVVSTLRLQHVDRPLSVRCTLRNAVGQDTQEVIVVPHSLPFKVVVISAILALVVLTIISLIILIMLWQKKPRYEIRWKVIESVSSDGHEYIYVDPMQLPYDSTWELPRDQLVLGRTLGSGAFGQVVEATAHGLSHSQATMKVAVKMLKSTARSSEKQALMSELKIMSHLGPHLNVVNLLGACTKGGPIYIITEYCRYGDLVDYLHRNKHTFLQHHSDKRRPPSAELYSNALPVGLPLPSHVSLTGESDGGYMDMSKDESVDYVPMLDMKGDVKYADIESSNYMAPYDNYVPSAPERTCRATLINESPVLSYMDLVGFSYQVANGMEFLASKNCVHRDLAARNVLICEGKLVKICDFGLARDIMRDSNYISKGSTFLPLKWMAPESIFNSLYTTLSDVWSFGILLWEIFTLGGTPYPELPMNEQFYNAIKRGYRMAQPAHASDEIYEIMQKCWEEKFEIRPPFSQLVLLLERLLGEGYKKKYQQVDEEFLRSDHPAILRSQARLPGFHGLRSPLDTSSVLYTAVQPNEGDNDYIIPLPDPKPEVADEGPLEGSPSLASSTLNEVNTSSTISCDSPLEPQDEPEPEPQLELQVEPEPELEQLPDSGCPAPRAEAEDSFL", "assay": "Kinase panel", "assay_type": "biochemical", "description": "as §3"}, "MAPK2(h)": {"molecular_target": "T10, MAPK2(h) (Homo sapiens, UniProt P28482)", "T10 construct": "purchased Cerep (receptors, ion channels, transporters); Eurofins Panlabs (kinases)", "T10 sequence (P28482 whole entry)": "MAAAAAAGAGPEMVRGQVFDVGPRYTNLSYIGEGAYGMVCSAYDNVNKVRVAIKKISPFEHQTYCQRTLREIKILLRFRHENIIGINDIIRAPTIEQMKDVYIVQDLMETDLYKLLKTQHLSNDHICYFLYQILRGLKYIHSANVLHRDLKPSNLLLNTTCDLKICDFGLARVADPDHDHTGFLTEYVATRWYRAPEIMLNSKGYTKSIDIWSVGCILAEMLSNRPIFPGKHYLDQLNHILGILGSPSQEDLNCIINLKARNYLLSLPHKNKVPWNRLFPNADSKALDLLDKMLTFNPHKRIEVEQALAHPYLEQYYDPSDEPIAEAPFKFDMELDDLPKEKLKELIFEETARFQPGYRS", "assay": "Kinase panel", "assay_type": "biochemical", "description": "as §3"}, "human whole blood": {"test_system": "human whole blood", "assay": "in vitro whole blood assay, IL-17A production", "assay_type": "cell-based", "conditions": "human whole blood diluted 1:1; read-out: IC50, inhibition of IL-17A production"}}}
{"smiles": "CC1CCCN1C(=O)c1nc(C(=O)NCC(C)(C)O)sc1-c1ccc(C(O)(C(F)(F)F)C(F)(F)F)c(Cl)c1Cl", "note": "(centres unmarked) [JNJ-61803534]", "values": [{"measurement": "inhibition at 1 µM", "setting": "B2 (h)", "value": "< 10", "unit": "%"}, {"measurement": "inhibition at 10 µM", "setting": "B2 (h)", "value": "< 10", "unit": "%"}, {"measurement": "disease incidence at day 35", "setting": "[1]; 3 mg/kg BID", "value": 100, "unit": "%"}, {"measurement": "reduction of clinical arthritis scores (AUC) vs vehicle, efficacy % inhibition", "setting": "[1]; 3 mg/kg BID oral", "value": 30, "unit": "%"}, {"measurement": "disease incidence at day 35", "setting": "[1]; 10 mg/kg BID", "value": 89, "unit": "%"}, {"measurement": "reduction of clinical arthritis scores (AUC) vs vehicle, efficacy % inhibition", "setting": "[1]; 10 mg/kg BID oral", "value": 44, "unit": "%"}, {"measurement": "disease incidence at day 35", "setting": "[1]; 30 mg/kg BID", "value": 80, "unit": "%"}, {"measurement": "reduction of clinical arthritis scores (AUC) vs vehicle, efficacy % inhibition", "setting": "[1]; 30 mg/kg BID oral", "value": 66, "unit": "%"}, {"measurement": "disease incidence at day 35", "setting": "[1]; 60 mg/kg QD", "value": 100, "unit": "%"}, {"measurement": "reduction of clinical arthritis scores (AUC) vs vehicle, efficacy % inhibition", "setting": "[1]; 60 mg/kg QD oral, p > 0.05", "value": 13, "unit": "%"}, {"measurement": "disease incidence at day 35", "setting": "[1]; 100 mg/kg BID", "value": 45, "unit": "%"}, {"measurement": "reduction of clinical arthritis scores (AUC) vs vehicle, efficacy % inhibition", "setting": "[1]; 100 mg/kg BID oral", "value": 88, "unit": "%"}, {"measurement": "inhibition of total histopathology score", "setting": "[1]; 100 mg/kg, BID, oral", "value": 94, "unit": "%"}, {"measurement": "maximum inhibition for final arthritic score", "setting": "[1]; 100 mg/kg, BID, oral", "value": 88, "unit": "%"}, {"measurement": "maximum inhibition of clinical score", "setting": "[1]; mouse, in vivo", "value": "~ 90%"}, {"measurement": "EC50", "setting": "D1; agonist", "value": "> 12.5", "unit": "µM"}, {"measurement": "IC50", "setting": "D1; antagonist", "value": "> 12.5", "unit": "µM"}, {"measurement": "EC50", "setting": "AT1; agonist", "value": "> 5", "unit": "µM"}, {"measurement": "IC50", "setting": "AT1; antagonist", "value": "> 5", "unit": "µM"}, {"measurement": "activity at 1 µM", "setting": "Plk3(h)", "value": 120, "unit": "%"}, {"measurement": "activity at 10 µM", "setting": "Plk3(h)", "value": 114, "unit": "%"}, {"measurement": "genetic toxicity", "setting": "TK6", "value": "negative"}, {"measurement": "inhibition at 1 µM", "setting": "V1a (h)", "value": "< 10", "unit": "%"}, {"measurement": "inhibition at 10 µM", "setting": "V1a (h)", "value": 20.3, "unit": "%"}, {"measurement": "inhibition at 1 µM", "setting": "H2 (h)", "value": "< 10", "unit": "%"}, {"measurement": "inhibition at 10 µM", "setting": "H2 (h)", "value": 16.6, "unit": "%"}, {"measurement": "IC50", "setting": "hNav1.5", "value": "> 30", "unit": "µM"}, {"measurement": "activity at 1 µM", "setting": "PKCβI(h)", "value": 97, "unit": "%"}, {"measurement": "activity at 10 µM", "setting": "PKCβI(h)", "value": 87, "unit": "%"}, {"measurement": "maximum inhibition of ex vivo stimulated IL-17A production as compared to placebo", "setting": "[2]; 100 mg single dose, fasted (cohort 3)", "value": 45, "unit": "%"}, {"measurement": "maximum inhibition of ex vivo stimulated IL-17A production as compared to placebo", "setting": "[2]; 200 mg single dose (cohort 4)", "value": 54, "unit": "%"}, {"measurement": "IL-17A inhibition", "setting": "[2]; 10 and 30 mg doses", "value": "did not appear to show a separation from placebo"}, {"measurement": "EC50", "setting": "CCKA; agonist", "value": "> 10", "unit": "µM"}, {"measurement": "IC50", "setting": "CCKA; antagonist", "value": "> 10", "unit": "µM"}, {"measurement": "EC50", "setting": "A3; agonist", "value": "> 12.5", "unit": "µM"}, {"measurement": "IC50", "setting": "A3; antagonist", "value": "> 12.5", "unit": "µM"}, {"measurement": "activity at 1 µM", "setting": "Aurora-A(h)", "value": 97, "unit": "%"}, {"measurement": "activity at 10 µM", "setting": "Aurora-A(h)", "value": 102, "unit": "%"}, {"measurement": "inhibition at 1 µM", "setting": "H1 (h)", "value": "< 10", "unit": "%"}, {"measurement": "inhibition at 10 µM", "setting": "H1 (h)", "value": "< 10", "unit": "%"}, {"measurement": "EC50", "setting": "M3; agonist", "value": "> 10", "unit": "µM"}, {"measurement": "IC50", "setting": "M3; antagonist", "value": "> 10", "unit": "µM"}, {"measurement": "EC50", "setting": "ADRA2A; agonist", "value": "> 12.5", "unit": "µM"}, {"measurement": "IC50", "setting": "ADRA2A; antagonist", "value": "> 12.5", "unit": "µM"}, {"measurement": "IC50", "setting": "[3]", "value": "> 30", "unit": "µM"}, {"measurement": "activity at 1 µM", "setting": "PDGFRβ(h)", "value": 103, "unit": "%"}, {"measurement": "activity at 10 µM", "setting": "PDGFRβ(h)", "value": 143, "unit": "%"}, {"measurement": "activity at 1 µM", "setting": "MAPK2(h)", "value": 124, "unit": "%"}, {"measurement": "activity at 10 µM", "setting": "MAPK2(h)", "value": 127, "unit": "%"}, {"measurement": "IC50", "setting": "human whole blood", "value": "0.23 ± 0.11", "unit": "µM"}]}
